Literature values, collected in US10918699B2, “Therapeutic treatment for neurotrophic keratopathy” (priority 2017, dated 2021).

Experiments:
[1] = system: cultured sheets of corneal epithelial cells
corneal ulcers = settings: systemic administration, humans, 1945 case series
[2] = system: corneal epithelium wound healing; settings: together with substance-P; several pre-clinical studies

Substance	cell migration and closure of artificial wounds [1]	healing of corneal ulcers (corneal ulcers)	corneal epithelium wound healing [2]
insulin	promoted cell migration and closure of artificial wounds	improved healing	–
Insulin-like growth factor-1 [IGF-1]	–	–	act synergistically with substance-P
